Measured values published in patent US20160177259A1, “[…]” (Evonik Degussa GmbH, priority 2014, published 2016).

System: Clostridium ljungdahlii
Assay: Autotrophic production in carbonate buffer on synthesis gas with 0.4 g/l or no L-cysteine HCl (Example 2)
Assay type: cell-based
Conditions: for Acetate (NMR) / Ethanol (NMR) / OD600 / Δp: reactor 2, 0.4 g/L L-Cysteine-HCl
Description: For the production, anaerobic carbonate buffer (adjusted with KOH 1.87 g/L) was used.
Identical autotrophic productions were carried out in 500 mL septum bottles with 100 mL of carbonate carried out in a shaking water bath shaker (open Innova 3100 by New Brunswick Scientific) at 100 min^−1. The productions were carried out at 37° C. with manual control of the pH. Once the pH dropped below 5.5, KOH was metered from a stock solution of 187 g/L. In the present experiments the pH in both reactors at points in time of 50.3 h and 73.3 h were taken and corrected by the addition of each 1.87 g/L KOH manually.
The reactors were inoculated with a synthesis gas mixture of 67% H2 and 33% CO2 pressurized with an overpressure of 0.8 bar. To replenish the consumed gas, the gas atmosphere was completely replaced once a day in the headspace of the reactors and again pressured to 0.8 bars.
The reactor 1 contained a concentration of L-cysteine HCl of 0 g/L, and reactor 2 a concentration of L-cysteine HCl of 0.4 g/L.
The reactors started with autotrophic cells at an OD of 0.2. The pre-culture was carried out continuously in a 1 L bottle with 500 ml of complex medium. The complex medium comprised of 1 g/l NH4Cl, 0.1 g/l KCl, 0.2 g/l MgSO4×7 H2O, 0.8 g/l NaCl, 0.1 g/l KH2PO4, 20 mg/l CaCl2×2 H2O, 20 g/l MES, 1 g/l yeast extract, 0.4 g/L L-cysteine HCl, 20 mg/l nitrilotriacetic acid, 10 mg/l MnSO4 H2O x, 8 mg/l (NH4)2Fe(SO4)2×6 H2O, 2 mg/L CoCl2×6 H2O, 2 mg/l ZnSO4×7 H2O, 0.2 mg/l CuCl2×2H2O, 0.2 mg/l Na2MoO4×2 H2O, 0.2 mg/l NiCl2×6 H2O, 0.2 mg/l Na2SeO4, 0.2 mg/l Na2WO4×2 H2O, 20 μg/l d-biotin, 20 μg/L folic acid, 100 μg/l pyridoxine HCl, 50 μg/l thiamine-HCl×H2O. 50 μg/l of riboflavin, 50 μg/l nicotinic acid, 50 μg/l Ca-pantothenate, 1 μg/L of vitamin B12, 50 μg/l p-aminobenzoate, 50 μg/l lipoic acid. The gassing of the culture with synthesis gas (67% H2, 33% CO2) was carried out continuously at a flow rate of 3 l/h over a filter with pore size of 10 microns. The cells were in late log phase of growth at an OD of 0.23 anaerobically centrifuged (4500 rpm, 4300 g, 20° C., 10 min). The supernatant was discarded and the cell pellet resuspended in 10 ml carbonate buffer. The prepared cells were then used to inoculate the actual experiments.
When sampling each 5 ml sample was removed for determination of 0D600, pH and the product range. The determination of the product concentration was performed by quantitative ^1H-NMR spectroscopy. As an internal quantification standard sodium trimethylsilylpropionate (T(M)SP) was used.

Cl.N[C@@H](CS)C(=O)O [L-Cysteine-HCl, L-cysteine hydrochloride]
concentrations of ethanol and acetate formed (0.4 g/L compared with no L-cysteine-HCl, end of 98.8 h reaction time): higher | Acetate (NMR) (0.0 h): 15 mg/L | Ethanol (NMR) (0.0 h): 5 mg/L | OD600 (0.0 h): 0.18 | Acetate (NMR) (26.0 h): 1714 mg/L | Ethanol (NMR) (26.0 h): 21 mg/L | OD600 (26.0 h): 0.18 | Δp (26.0 h): 0.6 bar | Acetate (NMR) (50.3 h): 2471 mg/L | Ethanol (NMR) (50.3 h): 91 mg/L | OD600 (50.3 h): 0.19 | Δp (50.3 h): 0.5 bar | OD600 (74.3 h): 0.18 | Δp (74.3 h): 0.4 bar | Acetate (NMR) (98.8 h): 3366 mg/L | Ethanol (NMR) (98.8 h): 84 mg/L | OD600 (98.8 h): 0.18 | Δp (98.8 h): 0.2 bar | gas consumption (reactor 2 with 0.4 g/L compared with 0 g/L L-cysteine-HCl, over 98.8 h): higher
